Consider seven molecules from patent US20100240093A1, “Isolated Staphylococcus Pseudolugdunensis” (priority 2006, published 2010).

One experiment concerns 12 isolates. Description: Disc diffusion antimicrobial susceptibility testing, all isolates. It counts as cell-based, Staphylococcus pseudolugdunensis. As to the method: (§1) In vitro antimicrobial susceptibility testing for amoxicillin-clavulanate, cefazolin, clindamycin, erythromycin, gentamicin, levofloxacin, minocycline, penicillin, rifampin, trimethoprim/sulfamethoxazole (SXT) and vancomycin was determined by a disc diffusion method in accordance with Clinical and Laboratory Standards Institute guidelines (CLSI Performance standards for antimicrobial disk susceptibility tests; Approved standard, 9th ed. (2006) Clinical and Laboratory Standards Institute, Wayne, Pa.).
(In general: Agar diffusion results depend on both activity and mobility in agar.)

The next experiment has as its system isolate B006. Description: Disc diffusion antimicrobial susceptibility testing. Also: key: R—resistant; S—susceptible. It counts as cell-based, Staphylococcus pseudolugdunensis. As to the method: as §1
The subject of the next experiment is isolate B739. The experiment is described as above. It is filed as cell-based, Staphylococcus pseudolugdunensis. Particulars: isolate 8739. On the procedure: as §1
The test system of the next experiment is isolate B334. The experiment is described as above. It is filed as cell-based, Staphylococcus pseudolugdunensis. On the procedure:
as §1

The test system of another experiment is isolate B292. The experiment is described as above. Particulars: isolate 13292. It counts as cell-based, Staphylococcus pseudolugdunensis. On the procedure:
as §1

The subject of a further experiment is isolate B837. The experiment is described as above. It counts as cell-based, Staphylococcus pseudolugdunensis. On the procedure:
as §1

The test system of another experiment is isolate B060. Described as above. It counts as cell-based, Staphylococcus pseudolugdunensis. On the procedure:
as §1

Another experiment concerns isolate B354. The experiment is described as above. It counts as cell-based, Staphylococcus pseudolugdunensis. As to the method:
as §1

The subject of the next experiment is isolate B230. Described as above. It is filed as cell-based, Staphylococcus pseudolugdunensis. As to the method:
as §1

The subject of a further experiment is isolate B277. Described as above. It counts as cell-based, Staphylococcus pseudolugdunensis. Particulars: isolate 8277. On the procedure: as §1
In another experiment the test system is isolate B333. The description is as above. It counts as cell-based, Staphylococcus pseudolugdunensis. As to the method: as §1; also: key: R—resistant; S—susceptible
Another experiment relates to isolate B715. The experiment is described as above. It is filed as cell-based, Staphylococcus pseudolugdunensis. Particulars: isolate 13715. On the procedure:
as §1

Another experiment deals with isolate B287. Described as above. It is filed as cell-based, Staphylococcus pseudolugdunensis. Particulars: isolate 8287. As to the method: as §1
A further experiment has as its system isolates B230 and B333. As to the kind of experiment: Clinical case of intravenous line-associated infection. It is filed as in vivo, human. Particulars: patient with intravenous line-associated infection, line removed. On the procedure: The relatedness of these 12 ODC/PYR-positive CoNS was further analyzed by pulsed field gel electrophoresis (PFGE). All isolates were unrelated, except for two isolates (B230 and B333) which were recovered from the same patient over a 16-day interval. […] Vancomycin was administered and the line removed.
Medical records of the 11 patients from whom these isolates were recovered were reviewed and the demographic and clinical information are listed in Table 3. Two isolates (B230 and B333), which were recovered from the same patient over a 16-day interval, were considered to be the pathogen that caused an intravenous line-associated infection. The remaining 10 isolates were considered to be contaminants. Antibiotics, including vancomycin, were administered in 6 (54.5%) cases, including one case in which the two isolates were considered pathogens and in 5 of 10 cases in which the isolates were considered contaminants (Table 3).
For antimicrobial susceptibility in this document: key: R—resistant; S—susceptible.

As to Gentamicin, the “Susceptibility of all 12 isolates” value with 12 isolates is “susceptible”. In addition, the Antimicrobial susceptibility entry in the experiment with isolate B006, in the experiment with isolate B739, in the experiment on isolate B334, in the experiment with isolate B292, in the experiment with isolate B837 and in the experiment on isolate B060 was “S” each time. The Antimicrobial susceptibility entry in the experiment on isolate B354, in the experiment on isolate B230, in the experiment on isolate B277, with isolate B333, in the experiment on isolate B715 and with isolate B287 was “S” each time.
With `CO[C@H]1/C=C/O[C@@]2(C)Oc3c(C)c(O)c4c(O)c(c(/C=N/N5CCN(C)CC5)c(O)c4c3C2=O)NC(=O)/C(C)=C\C=C\[C@H](C)[C@H](O)[C@@H](C)[C@@H](O)[C@@H](C)[C@H](OC(C)=O)[C@@H]1C` [Rifampin], the “Susceptibility of all 12 isolates” value with 12 isolates is listed as “susceptible”. Besides, the Antimicrobial susceptibility entry in the experiment on isolate B006, in the experiment on isolate B739, with isolate B334, with isolate B292, in the experiment on isolate B837 and with isolate B060 was “S” in each case. Moreover, the Antimicrobial susceptibility entry in the experiment with isolate B354, in the experiment on isolate B230, in the experiment on isolate B277, in the experiment on isolate B333, in the experiment on isolate B715 and with isolate B287 was “S” in each case.
Consider `CN[C@H](CC(C)C)C(=O)N[C@H]1C(=O)N[C@@H](CC(N)=O)C(=O)N[C@H]2C(=O)N[C@H]3C(=O)N[C@H](C(=O)N[C@H](C(=O)O)c4cc(O)cc(O)c4-c4cc3ccc4O)[C@H](O)c3ccc(c(Cl)c3)Oc3cc2cc(c3O[C@@H]2O[C@H](CO)[C@@H](O)[C@H](O)[C@H]2O[C@H]2C[C@](C)(N)[C@H](O)[C@H](C)O2)Oc2ccc(cc2Cl)[C@H]1O` [Vancomycin], for which the Patient outcome in the experiment on isolates B230 and B333 is listed as “recovered fully”. Further, in the experiment on 12 isolates, the “Susceptibility of all 12 isolates” value was “susceptible”. In addition, the Antimicrobial susceptibility entry in the experiment on isolate B006, with isolate B739, with isolate B334, in the experiment on isolate B292, in the experiment on isolate B837 and in the experiment on isolate B060 was “S” throughout. The Antimicrobial susceptibility result in the experiment with isolate B354, in the experiment on isolate B230, in the experiment with isolate B277, with isolate B333, in the experiment on isolate B715 and in the experiment with isolate B287 was “S” each time.
Turning to `C[C@H]1COc2c(N3CCN(C)CC3)c(F)cc3c(=O)c(C(=O)O)cn1c23` [Levofloxacin], the Antimicrobial susceptibility entry is “S” with isolate B006; “S” with isolate B739; “R” with isolate B334; “S” with isolate B292; “S” with isolate B837; “S” in the experiment on isolate B060. The Antimicrobial susceptibility result was “S” in the experiment on isolate B354; “R” with isolate B230; “S” with isolate B277; “S” in the experiment with isolate B333; “R” with isolate B715; “R” in the experiment on isolate B287.
Regarding `CCC[C@@H]1C[C@@H](C(=O)N[C@@H]([C@H]2O[C@H](SC)[C@H](O)[C@@H](O)[C@H]2O)[C@H](C)Cl)N(C)C1` [Clindamycin], the Antimicrobial susceptibility result with isolate B006 is “S”; in the experiment with isolate B739 it was “R”; with isolate B334, “R”; with isolate B292, “S”; in the experiment with isolate B837, “R”; with isolate B060, “S”. In addition, the Antimicrobial susceptibility entry in the experiment on isolate B354 was “S”; in the experiment on isolate B230 it was “S”; in the experiment with isolate B277, “S”; in the experiment on isolate B333, “R”; in the experiment with isolate B715, “S”; with isolate B287 it was “S”.
Amoxicillin-clavulanate: the Antimicrobial susceptibility entry in the experiment on isolate B006 is on record as “R”; in the experiment with isolate B739 it was “R”; in the experiment on isolate B334, “R”; in the experiment on isolate B292 it was “S”; in the experiment on isolate B837, “R”; in the experiment with isolate B060 it was “S”. Further, the Antimicrobial susceptibility entry is on record as “S” with isolate B354; “S” in the experiment with isolate B230; “S” in the experiment with isolate B277; “S” in the experiment on isolate B333; “R” with isolate B715; “S” in the experiment on isolate B287.
Regarding `COc1cccc(OC)c1C(=O)N[C@@H]1C(=O)N2[C@@H]1SC(C)(C)[C@@H]2C(=O)O` [Methicillin], the Antimicrobial susceptibility result in the experiment with isolate B006 is “R”; in the experiment on isolate B739 it was “R”; with isolate B334, “R”; in the experiment on isolate B292, “S”; with isolate B837, “R”; in the experiment on isolate B060 it was “S”. Moreover, the Antimicrobial susceptibility result is “S” in the experiment with isolate B354; “S” in the experiment on isolate B230; “S” in the experiment with isolate B277; “S” in the experiment on isolate B333; “R” in the experiment with isolate B715; “S” in the experiment with isolate B287.
